For data set [1] the following is noted: amide bond, 13-membered ring, CDMT/NMM.
The target in data set [2] is T1, CFTR (F508del/MF-HBE cells) (Homo sapiens, UniProt P13569, DEL508-508).
T1 construct: human bronchial epithelial (HBE) cells derived from CF subjects heterozygous for F508del and a minimal function CFTR mutation (F508del/MF-HBE); endogenous in cells; host or cells: Primary human bronchial epithelial cells from CF subjects (F508del/MF genotype), differentiated at an air-liquid interface
The experiment in a line: Ussing chamber assay of CFTR-mediated short-circuit currents, Assay D (single concentration of 1 μM). The data set is classed as cell-based. The settings on record: with 44 nM potentiator and 18 μM Tezacaftor, 18-24 hours, 20% human serum. In outline:
(§1)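 F508del/MF-HBE cells were preincubated 18–24 h at 37 °C in 20% human serum with corrector plus 18 μM tezacaftor and either 33 nM (concentration series) or 44 nM (1 μM single point) of the aminotrifluoromethyl triazatricyclic potentiator. Ussing chamber, Vhold=0 mV, 37 °C; forskolin 20 μM stimulation, CFTR ISC taken as inhibitor-cocktail-sensitive current.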

Data set [3] deals with T1, CFTR (F508del/MF-HBE cells). The experiment in a line: Ussing chamber assay of CFTR-mediated short-circuit currents, Assay C (0.026 μM to 25 μM, 6 concentrations). The data set is classed as cell-based. The note with it: with 33 nM potentiator and 18 μM Tezacaftor, 20% human serum; for Emax: read-out: C Max activity (%). The gist of the method:
as §1

pEC50: −log10 of the molar value. Like-named read-outs stand apart in the source and are kept apart here.

T1 sequence (P13569 with tags, fused parts or gaps DEL508-508): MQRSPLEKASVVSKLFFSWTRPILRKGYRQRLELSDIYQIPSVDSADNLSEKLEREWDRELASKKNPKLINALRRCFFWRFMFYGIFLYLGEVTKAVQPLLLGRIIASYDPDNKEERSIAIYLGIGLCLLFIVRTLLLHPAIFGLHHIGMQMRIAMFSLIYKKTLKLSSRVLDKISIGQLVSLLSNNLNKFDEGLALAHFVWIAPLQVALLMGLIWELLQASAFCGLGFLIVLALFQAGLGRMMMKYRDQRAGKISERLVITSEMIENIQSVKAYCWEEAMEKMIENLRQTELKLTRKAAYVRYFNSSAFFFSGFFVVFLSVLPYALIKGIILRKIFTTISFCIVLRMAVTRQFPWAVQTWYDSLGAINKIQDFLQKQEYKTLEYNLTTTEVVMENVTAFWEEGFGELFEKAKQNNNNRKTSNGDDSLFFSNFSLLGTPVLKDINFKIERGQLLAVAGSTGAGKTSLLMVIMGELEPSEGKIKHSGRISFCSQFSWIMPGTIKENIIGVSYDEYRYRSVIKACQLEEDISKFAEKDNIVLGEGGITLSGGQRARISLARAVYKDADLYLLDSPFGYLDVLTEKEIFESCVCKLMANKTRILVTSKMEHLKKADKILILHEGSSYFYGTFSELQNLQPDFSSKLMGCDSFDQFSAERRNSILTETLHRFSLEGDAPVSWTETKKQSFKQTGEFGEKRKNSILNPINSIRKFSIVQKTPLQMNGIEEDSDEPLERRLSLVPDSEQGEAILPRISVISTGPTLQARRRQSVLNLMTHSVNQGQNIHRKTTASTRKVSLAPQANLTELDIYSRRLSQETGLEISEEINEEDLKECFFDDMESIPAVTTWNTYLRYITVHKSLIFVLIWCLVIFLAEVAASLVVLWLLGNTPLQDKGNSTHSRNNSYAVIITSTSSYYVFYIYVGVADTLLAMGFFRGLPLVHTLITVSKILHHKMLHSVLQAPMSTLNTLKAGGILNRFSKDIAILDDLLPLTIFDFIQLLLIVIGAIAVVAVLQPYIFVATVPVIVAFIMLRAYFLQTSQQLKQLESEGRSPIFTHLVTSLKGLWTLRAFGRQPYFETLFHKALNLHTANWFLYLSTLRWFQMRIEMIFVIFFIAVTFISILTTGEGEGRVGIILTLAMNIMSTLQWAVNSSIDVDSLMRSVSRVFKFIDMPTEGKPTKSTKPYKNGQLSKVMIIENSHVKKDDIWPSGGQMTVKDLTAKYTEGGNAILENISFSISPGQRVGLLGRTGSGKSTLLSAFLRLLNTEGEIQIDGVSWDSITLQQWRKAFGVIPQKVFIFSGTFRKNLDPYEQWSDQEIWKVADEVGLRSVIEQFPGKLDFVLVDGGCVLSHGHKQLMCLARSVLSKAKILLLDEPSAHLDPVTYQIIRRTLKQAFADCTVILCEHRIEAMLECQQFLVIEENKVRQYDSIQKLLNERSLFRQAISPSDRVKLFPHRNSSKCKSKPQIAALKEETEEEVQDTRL

`Cc1cccc(C)c1-c1cc2nc(n1)NS(=O)(=O)c1cccc(c1)C(=O)N(Cc1cnc3oc(C(C)C)c(C(F)(F)F)c3n1)[C@H](CC1(C)CC1)CO2` [Compound I-126, (11R)-6-(2,6-dimethylphenyl)-12-[[6-isopropyl-7-(trifluoromethyl)furo[2,3-b]pyrazin-2-yl]methyl]-11-[(1-methylcyclopropyl)methyl]-2,2-dioxo-9-oxa-2λ^6-thia-3,5,12,19-tetrazatricyclo[12.3.1.14,8]nonadeca-1(18),4(19),5,7,14,16-hexaen-13-one]: in data set [1] (from Cc1cccc(C)c1-c1cc(OC[C@@H](CC2(C)CC2)NCc2cnc3oc(C(C)C)c(C(F)(F)F)c3n2)nc(NS(=O)(=O)c2cccc(C(=O)O)c2)n1, DMF, 12.1 mM, 16.5 h), the ring closure, yield after HPLC stood at 36%. For the same molecule, in data set [2], the “D activity at 1 μM (%)” value is recorded as “+++ (+++ is >60%)”.
Regarding `Cc1cccc(C)c1-c1cc2nc(n1)NS(=O)(=O)c1cccc(c1)C(=O)N(Cc1cnc3oc(C(C)C)c(NC(=O)OC(C)(C)C)c3n1)[C@H](CC1(C)CC1)CO2` [Compound I-210, tert-Butyl N-[2-[[(11R)-6-(2,6-dimethylphenyl)-11-[(1-methylcyclopropyl)methyl]-2,2,13-trioxo-9-oxa-2λ^6-thia-3,5,12,19-tetrazatricyclo[12.3.1.14,8]nonadeca-1(18),4(19),5,7,14,16-hexaen-12-yl]methyl]-6-isopropyl-furo[2,3-b]pyrazin-7-yl]carbamate], the ring closure, yield after HPLC in data set [1] (from Cc1cccc(C)c1-c1cc(OC[C@@H](CC2(C)CC2)NCc2cnc3oc(C(C)C)c(NC(=O)OC(C)(C)C)c3n2)nc(NS(=O)(=O)c2cccc(C(=O)O)c2)n1, DMF, 13.4 mM, 5.5 h) turned out to be 55%. In addition, the “D activity at 1 μM (%)” value in data set [2] is “+++ (+++ is >60%)”.
`Cc1cccc(C)c1-c1cc2nc(n1)NS(=O)(=O)c1cccc(c1)C(=O)N(Cc1cnc3nc(C4CC4)n(C)c3n1)[C@H](CC13CC(C1)C3)CO2` [Compound I-175, (11R)-11-(1-Bicyclo[1.1.1]pentanylmethyl)-12-[(2-cyclopropyl-3-methyl-imidazo[4,5-b]pyrazin-5-yl)methyl]-6-(2,6-dimethylphenyl)-2,2-dioxo-9-oxa-2λ^6-thia-3,5,12,19-tetrazatricyclo[12.3.1.14,8]nonadeca-1(18),4(19),5,7,14,16-hexaen-13-one] had a ring closure, yield after HPLC in data set [1] (from Cc1cccc(C)c1-c1cc(OC[C@@H](CC23CC(C2)C3)NCc2cnc3nc(C4CC4)n(C)c3n2)nc(NS(=O)(=O)c2cccc(C(=O)O)c2)n1, DMF, 11.1 mM, 16.5 h) of 28%. Moreover, the “D activity at 1 μM (%)” value in data set [2] is “+++ (+++ is >60%)”.
`Cc1cccc(C)c1-c1cc2nc(n1)NS(=O)(=O)c1cccc(c1)C(=O)N(Cc1ccc3oc(C4(C)CC4)cc3n1)[C@H](CC13CC(C1)C3)CO2` [Compound I-225, (11R)-11-(1-Bicyclo[1.1.1]pentanylmethyl)-6-(2,6-dimethylphenyl)-12-[[2-(1-methylcyclopropyl)furo[3,2-b]pyridin-5-yl]methyl]-2,2-dioxo-9-oxa-2λ^6-thia-3,5,12,19-tetrazatricyclo[12.3.1.14,8]nonadeca-1(18),4(19),5,7,14,16-hexaen-13-one]: in data set [1] (from Cc1cccc(C)c1-c1cc(OC[C@@H](CC23CC(C2)C3)NCc2ccc3oc(C4(C)CC4)cc3n2)nc(NS(=O)(=O)c2cccc(C(=O)O)c2)n1, DMF), the ring closure, yield after HPLC worked out at 61%. In addition, the “D activity at 1 μM (%)” value in data set [2] is on record as “+++ (+++ is >60%)”.
In data set [1] (from Cc1cccc(C)c1-c1cc(OC[C@@H](CC2(C)CC2)NCc2cnc3oc(C(C)C)nc3n2)nc(NS(=O)(=O)c2cccc(C(=O)O)c2)n1, DMF, 23.5 mM, 2.08 h), `Cc1cccc(C)c1-c1cc2nc(n1)NS(=O)(=O)c1cccc(c1)C(=O)N(Cc1cnc3oc(C(C)C)nc3n1)[C@H](CC1(C)CC1)CO2` [Compound I-149, (11R)-6-(2,6-Dimethylphenyl)-12-[(2-isopropyloxazolo[4,5-b]pyrazin-5-yl)methyl]-11-[(1-methylcyclopropyl)methyl]-2,2-dioxo-9-oxa-2λ^6-thia-3,5,12,19-tetrazatricyclo[12.3.1.14,8]nonadeca-1(18),4(19),5,7,14,16-hexaen-13-one] returned a ring closure, yield after HPLC of 40%. Besides, in data set [2], the “D activity at 1 μM (%)” value was “+++ (+++ is >60%)”.
As to `Cc1cccc(C)c1-c1cc2nc(n1)NS(=O)(=O)c1cccc(c1)C(=O)N(Cc1cnc3oc(C4CC4)cc3n1)[C@H](Cc1ccccc1)CO2` [Compound I-191, (11R)-11-Benzyl-12-[(6-cyclopropylfuro[2,3-b]pyrazin-2-yl)methyl]-6-(2,6-dimethylphenyl)-2,2-dioxo-9-oxa-2λ^6-thia-3,5,12,19-tetrazatricyclo[12.3.1.14,8]nonadeca-1(18),4(19),5,7,14,16-hexaen-13-one], the ring closure, yield after HPLC in data set [1] (from Cc1cccc(C)c1-c1cc(OC[C@@H](Cc2ccccc2)NCc2cnc3oc(C4CC4)cc3n2)nc(NS(=O)(=O)c2cccc(C(=O)O)c2)n1, DMSO, 2.75 h) was determined as 60%. In data set [2], the “D activity at 1 μM (%)” value is listed as “+++ (+++ is >60%)”.
`Cc1cccc(C)c1-c1cc2nc(n1)NS(=O)(=O)c1cccc(c1)C(=O)N(Cc1cc3ccn(C(C)C)c3cn1)[C@H](CC1(C)CC1)CO2` [III-25, (11R)-6-(2,6-Dimethylphenyl)-12-[(I-isopropylpyrrolo[2,3-c]pyridin-5-yl)methyl]-11-[(I-methylcyclopropyl)methyl]-2,2-dioxo-9-oxa-2λ^6-thia-3,5,12,19-tetrazatricyclo[12.3.1.14,8]nonadeca-1(18),4(19),5,7,14,16-hexaen-13-one] gave a ring closure, yield after HPLC in data set [1] (from Cc1cccc(C)c1-c1cc(OC[C@@H](CC2(C)CC2)NCc2cc3ccn(C(C)C)c3cn2)nc(NS(=O)(=O)c2cccc(C(=O)O)c2)n1, DMF, 9.73 mM, 16.33 h) of 50%. Also, in data set [2], the “D activity at 1 μM (%)” value was “+++ (+++ is >60%)”.
Turning to `Cc1cccc(C)c1-c1cc2nc(n1)NS(=O)(=O)c1cccc(c1)C(=O)N(Cc1nc3cc(C4(C)CC4)oc3cc1F)[C@H](CC1(C)CC1)CO2` [Compound I-234, (11R)-6-(2,6-Dimethylphenyl)-12-[[6-fluoro-2-(1-methylcyclopropyl)furo[3,2-b]pyridin-5-yl]methyl]-11-[(1-methylcyclopropyl)methyl]-2,2-dioxo-9-oxa-2λ^6-thia-3,5,12,19-tetrazatricyclo[12.3.1.14,8]nonadeca-1(18),4(19),5,7,14,16-hexaen-13-one], the ring closure, yield after HPLC in data set [1] (from Cc1cccc(C)c1-c1cc(OC[C@@H](CC2(C)CC2)NCc2nc3cc(C4(C)CC4)oc3cc2F)nc(NS(=O)(=O)c2cccc(C(=O)O)c2)n1, DMF, 25.0 °C) is 57%. In addition, the “D activity at 1 μM (%)” value in data set [2] was “+++ (+++ is >60%)”.
Molecule `Cc1cccc(C)c1-c1cc2nc(n1)NS(=O)(=O)c1cccc(c1)C(=O)N(Cc1cnc3oc(C(C)C)c(Cl)c3n1)[C@H](CC1(C)CC1)CO2` [Compound I-161, (11R)-12-[(7-chloro-6-isopropyl-furo[2,3-b]pyrazin-2-yl)methyl]-6-(2,6-dimethylphenyl)-11-[(1-methylcyclopropyl)methyl]-2,2-dioxo-9-oxa-2λ^6-thia-3,5,12,19-tetrazatricyclo[12.3.1.14,8]nonadeca-1(18),4(19),5,7,14,16-hexaen-13-one] came in with a ring closure, yield after HPLC in data set [1] (from Cc1cccc(C)c1-c1cc(OC[C@@H](CC2(C)CC2)NCc2cnc3oc(C(C)C)c(Cl)c3n2)nc(NS(=O)(=O)c2cccc(C(=O)O)c2)n1, DMF, 14.9 mM, 19.0 h) of 54%. Further, the “D activity at 1 μM (%)” value in data set [2] was “+++ (+++ is >60%)”.
For the molecule `Cc1cccc(C)c1-c1cc2nc(n1)NS(=O)(=O)c1cccc(c1)C(=O)N(Cc1cnc3c(F)c(C4(C)CC4)n(C)c3n1)[C@H](CC1(C)CC1)CO2` [IV-93, (11R)-6-(2,6-dimethylphenyl)-12-[[7-fluoro-5-methyl-6-(1-methylcyclopropyl)pyrrolo[2,3-b]pyrazin-3-yl]methyl]-11-[(1-methylcyclopropyl)methyl]-2,2-dioxo-9-oxa-2λ^6-thia-3,5,12,19-tetraza-tricyclo[12.3.1.14,8]nonadeca-1(18),4(19),5,7,14,16-hexaen-13-one], the ring closure, yield after HPLC in data set [1] (from Cc1cccc(C)c1-c1cc(OC[C@@H](CC2(C)CC2)NCc2cnc3c(F)c(C4(C)CC4)n(C)c3n2)nc(NS(=O)(=O)c2cccc(C(=O)O)c2)n1, DMF, 10.1 mM, 25.0 °C, 16.5 h) is 20%. Besides, in data set [3], the pEC50 is greater than 6.00 and the Emax was greater than 60%.
In data set [1] (from Cc1cccc(C)c1-c1cc(OC[C@@H](CC2(C)CC2)NCc2cnc3oc(C4(C)CCC4)cc3n2)nc(NS(=O)(=O)c2cccc(C(=O)O)c2)n1, DMF, 44.8 mM, 16.0 h), `Cc1cccc(C)c1-c1cc2nc(n1)NS(=O)(=O)c1cccc(c1)C(=O)N(Cc1cnc3oc(C4(C)CCC4)cc3n1)[C@H](CC1(C)CC1)CO2` [Compound I-143, (11R)-6-(2,6-Dimethylphenyl)-12-[[6-(1-methylcyclobutyl)furo[2,3-b]pyrazin-2-yl]methyl]-11-[(1-methylcyclopropyl)methyl]-2,2-dioxo-9-oxa-2λ^6-thia-3,5,12,19-tetrazatricyclo[12.3.1.14,8]nonadeca-1(18),4(19),5,7,14,16-hexaen-13-one] had a ring closure, yield after HPLC of 56%. Moreover, the Emax in data set [3] (18-24 hours) is greater than 60%. Besides, the pEC50 in data set [3] was 4.52 to 5.52.

Usually pEC50 stands for the negative decadic logarithm of the EC50, by convention in mol/L.

For the origin of these results see US20250340574A1, “MODULATORS OF CYSTIC FIBROSIS TRANSMEMBRANE CONDUCTANCE REGULATOR” (Vertex Pharmaceuticals Incorporated, priority 2022, published 2025).
